Holding throughout (type): functional
For assay [1], the system named is Staphylococcus epidermidis. The experiment in a line: Antibacterial activity against Methicillin-sensitive Staphylococcus epidermidis assessed as bacterial growth inhibition.
Assay [2] has as its system Staphylococcus epidermidis. The experiment in a line: Antibacterial activity against Methicillin-resistant Staphylococcus epidermidis assessed as bacterial growth inhibition.
In assay [3] the test system is Staphylococcus aureus. As to the kind of experiment: Antibacterial activity against Methicillin-resistant Staphylococcus aureus assessed as bacterial growth inhibition.
For assay [4], the system named is Staphylococcus aureus. As to the kind of experiment: Antibacterial activity against Methicillin-sensitive Staphylococcus aureus assessed as bacterial growth inhibition.
For the next assay, the system named is Enterococcus faecalis. The experiment in a line: Antibacterial activity against Enterococcus faecalis assessed as bacterial growth inhibition.
For the next assay, the system named is Enterococcus faecium. As to the kind of experiment: Antibacterial activity against Enterococcus faecium assessed as inhibition of bacterial growth.
The test system of assay [5] is Staphylococcus aureus. As to the kind of experiment: Antibacterial activity against Staphylococcus aureus assessed as diameter of inhibition zone incubated for 24 hrs by well diffusion assay.
In another assay the test system is Bacillus subtilis. The experiment in a line: Antibacterial activity against Bacillus subtilis RCMB 010069 assessed as diameter of inhibition zone incubated for 24 hrs by well diffusion assay.
Another assay concerns Proteus vulgaris. As to the kind of experiment: Antibacterial activity against Proteus vulgaris RCMB 004 assessed as diameter of inhibition zone incubated for 24 hrs by well diffusion assay.
A further assay deals with Escherichia coli. As to the kind of experiment: Antibacterial activity against Escherichia coli RCMB 010052 assessed as diameter of inhibition zone incubated for 24 hrs by well diffusion assay.
The next assay concerns Aspergillus flavus. The experiment in a line: Antifungal activity against Aspergillus flavus assessed as diameter of inhibition zone incubated for 24 hrs by well diffusion assay.
For the next assay, the system named is Geotrichum candidum. The experiment in a line: Antifungal activity against Geotrichum candidum RCMB 052006 assessed as diameter of inhibition zone incubated for 24 hrs by well diffusion assay.

In brackets after ≈: the same amount, converted by molar mass.

Take `CO/N=C1/C(=O)N(Cc2cn(CC(=O)N3CCC[C@@H]4CN(c5c(F)cc6c(=O)c(C(=O)O)cn(C7CC7)c6c5OC)C[C@@H]43)nn2)c2cccc(F)c21`: the MIC (in assay [1]; in assay [2]; in the assay with Staphylococcus aureus [3]; in the assay with Staphylococcus aureus [4]; in the assay with Enterococcus faecalis; in the assay with Enterococcus faecium) was 0.06 µg/mL (≈ 0.0837 µM) each time.

For `CCO/N=C1/C(=O)N(Cc2cn(CC(=O)N3CCC[C@@H]4CN(c5c(F)cc6c(=O)c(C(=O)O)cn(C7CC7)c6c5OC)C[C@@H]43)nn2)c2cc(C)ccc21`, the MIC (in assay [1]; in [2]; in the assay on Staphylococcus aureus [3]; with Staphylococcus aureus [4]; in the assay on Enterococcus faecalis; in the assay with Enterococcus faecium) was 0.06 µg/mL (≈ 0.0826 µM) throughout.

On to `CCO/N=C1/C(=O)N(Cc2cn(CC(=O)N3CCC[C@@H]4CN(c5c(F)cc6c(=O)c(C(=O)O)cn(C7CC7)c6c5OC)C[C@@H]43)nn2)c2cc(F)ccc21`, for which the MIC (in assay [1]; in [2]; with Staphylococcus aureus [3]; in the assay on Staphylococcus aureus [4]; with Enterococcus faecalis; in the assay with Enterococcus faecium) was 0.06 µg/mL (≈ 0.0821 µM) in each case.

Take `Cc1c(C(=O)/C=C/c2cccnc2)nnn1-c1ccc(-n2nnc(C(=O)/C=C/c3cccnc3)c2C)cc1`: the “diameter of the inhibition zone (DIZ)” value in the assay on Staphylococcus aureus [5] is 17.3 mm; in the assay on Bacillus subtilis, 29.3 mm; in the assay on Proteus vulgaris, 17.8 mm; with Escherichia coli, 23.7 mm; in the assay on Aspergillus flavus, 18.03 mm; in the assay on Geotrichum candidum, 19.3 mm.

As for `CO/N=C1/C(=O)N(Cc2cn(CC(=O)N3CCC[C@@H]4CN(c5c(F)cc6c(=O)c(C(=O)O)cn(C7CC7)c6c5OC)C[C@@H]43)nn2)c2cc(C)ccc21`, the minimum inhibitory concentration (MIC) (in assay [1]; in assay [2]; in the assay on Staphylococcus aureus [3]; in the assay with Staphylococcus aureus [4]; with Enterococcus faecalis; with Enterococcus faecium) was 0.06 µg/mL (≈ 0.0842 µM) each time.

Take `CCO/N=C1/C(=O)N(Cc2cn(CC(=O)N3CCC[C@@H]4CN(c5c(F)cc6c(=O)c(C(=O)O)cn(C7CC7)c6c5OC)C[C@@H]43)nn2)c2cccc(F)c21`: the minimal inhibitory concentration (MIC) (in assay [1]; in [2]; in the assay with Staphylococcus aureus [3]; in the assay with Staphylococcus aureus [4]; in the assay on Enterococcus faecalis; in the assay on Enterococcus faecium) was 0.06 µg/mL (≈ 0.0821 µM) throughout.

As to `Cc1c(C(=O)/C=C/c2c[nH]c3ccccc23)nnn1-c1ccc(-n2nnc(C(=O)/C=C/c3c[nH]c4ccccc34)c2C)cc1`, the “diameter of the inhibition zone (DIZ)” value in the assay on Staphylococcus aureus [5] turned out to be 12 mm; in the assay on Bacillus subtilis it was 34.2 mm; in the assay with Proteus vulgaris it was 15.4 mm; in the assay on Escherichia coli, 25 mm; with Aspergillus flavus, 19.2 mm; in the assay on Geotrichum candidum, 17.2 mm.

On to `Cc1c(C(=O)/C=C/c2ccccn2)nnn1-c1ccc(-n2nnc(C(=O)/C=C/c3ccccn3)c2C)cc1`, for which the “diameter of the inhibition zone (DIZ)” value in the assay on Staphylococcus aureus [5] is on record as 22.02 mm; with Bacillus subtilis, 32.2 mm; in the assay on Proteus vulgaris, 24.37 mm; in the assay with Escherichia coli, 31.3 mm; with Aspergillus flavus it was 22 mm; in the assay with Geotrichum candidum, 24 mm.

In the case of `CCO/N=C1/C(=O)N(Cc2cn(CC(=O)N3CCC[C@@H]4CN(c5c(F)cc6c(=O)c(C(=O)O)cn(C7CC7)c6c5OC)C[C@@H]43)nn2)c2ccccc21`, the MIC (in [1]; in assay [2]; in the assay with Staphylococcus aureus [3]; with Staphylococcus aureus [4]; in the assay with Enterococcus faecalis; with Enterococcus faecium) was 0.06 µg/mL (≈ 0.0842 µM) throughout.

Regarding `COc1c(N2C[C@@H]3CCCN[C@@H]3C2)c(F)cc2c(=O)c(C(=O)O)cn(C3CC3)c12` [MOXIFLOXACIN], the MIC (in assay [1]; in assay [2]; in the assay with Staphylococcus aureus [3]; in the assay with Staphylococcus aureus [4]; in the assay with Enterococcus faecalis; with Enterococcus faecium) was 0.06 µg/mL (≈ 0.149 µM) throughout.
